Measured values as given in the supplement of paper PMC10307832.

Key:
Assay in all cases: relative viability (nuclei count vs DMSO), 5 days (fraction); higher = more cells survive
[1] = compound: O=C(CCCCCCNC(=O)c1cnc(N(c2ccccc2)c2ccccc2)nc1)NO [Ricolinostat] + Nc1ncn([C@H]2C[C@H](O)[C@@H](CO)O2)c(=O)n1 [Decitabine] (partner 2 µM)
How it was run: (§1)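 Lung cancer cell lines, seeded in 1536-well plates, were treated the following day by pin tool with a single drug or with five library-drug doses (not always all listed) in √10 steps on top of a fixed anchor-drug dose. Cells were fixed and nuclei stained in one step after 5 days, and nuclei were counted. Relative viability is the nuclei count for treated wells divided by that for vehicle wells, reported as medians of duplicate plates.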

[2] = compound: O=C(CCCCCCNC(=O)c1cnc(N(c2ccccc2)c2ccccc2)nc1)NO [Ricolinostat] + O=C(CCCCCCC(=O)Nc1ccccc1)NO [Vorinostat] (partner 1 µM)
How it was run: as §1

[3] = compound: O=C(CCCCCCNC(=O)c1cnc(N(c2ccccc2)c2ccccc2)nc1)NO [Ricolinostat] + NC(=O)Nc1cc(-c2cccc(F)c2)sc1C(=O)N[C@H]1CCCNC1 [AZD7762] (partner 0.2 µM)
How it was run: as §1

[4] = compound: CC1=CN2C(=O)C=C(N=C2C(=C1)C(C)NC3=CC=CC=C3)N4CCOCC4 [TGX 221] + CC1(C)CCC(c2ccc(Cl)cc2)=C(CN2CCN(c3ccc(C(=O)NS(=O)(=O)c4ccc(N[C@H](CCN5CCOCC5)CSc5ccccc5)c(S(=O)(=O)C(F)(F)F)c4)cc3)CC2)C1 [Navitoclax] (partner 0.5 µM)
How it was run: as §1

Row | Cell Line | relative viability ([1]; first compound 0.08 µM) | relative viability ([1]; first compound 0.253 µM) | relative viability ([1]; first compound 0.8 µM) | relative viability ([1]; first compound 2.53 µM) | relative viability ([2]; first compound 0.08 µM) | relative viability ([2]; first compound 0.253 µM) | relative viability ([2]; first compound 0.8 µM) | relative viability ([2]; first compound 2.53 µM) | relative viability ([3]; first compound 0.08 µM) | relative viability ([3]; first compound 0.253 µM) | relative viability ([3]; first compound 0.8 µM) | relative viability ([3]; first compound 2.53 µM) | relative viability ([4]; first compound 0.08 µM) | relative viability ([4]; first compound 0.253 µM) | relative viability ([4]; first compound 0.8 µM) | relative viability ([4]; first compound 2.53 µM) | relative viability ([4]; first compound 8 µM)
1 | NCI-H23 | 0.325 | 0.316 | 0.319 | 0.323 | 0.426 | 0.586 | 0.407 | 0.342 | 0.332 | 0.281 | 0.223 | 0.154 | 0.753 | 0.763 | 0.832 | 0.608 | 0.713
2 | NCI-H322M | 0.616 | 0.708 | 0.721 | 0.754 | 0.621 | 0.834 | 0.827 | 0.804 | 0.432 | 0.663 | 0.512 | 0.49 | 1.13 | 1.19 | 1.14 | 0.911 | 1.33
3 | NCI-H441 | 0.28 | 0.227 | 0.202 | 0.214 | 0.735 | 0.76 | 0.643 | 0.54 | 0.982 | 1.06 | 0.924 | 0.801 | 0.494 | 0.529 | 0.599 | 0.998 | 0.797
4 | NCI-H460 | 0.496 | 0.429 | 0.519 | 0.427 | 0.594 | 0.677 | 0.573 | 0.194 | 0.589 | 0.582 | 0.587 | 0.322 | 1.04 | 1.02 | 1.24 | 1.19 | 1.07
5 | NCI-H596 | 0.992 | 0.981 | 0.99 | 1.67 | 0.61 | 0.645 | 0.567 | 0.432 | 0.965 | 1.12 | 1.08 | 0.686 | 0.996 | 0.863 | 0.969 | 0.902 | 0.886
6 | NCI-H647 | 0.365 | 0.317 | 0.31 | 0.312 | 0.562 | 0.464 | 0.52 | 0.441 | 0.35 | 0.359 | 0.322 | 0.241 | 1.08 | 0.781 | 0.943 | 0.88 | 0.622
7 | NCI-H727 | 0.807 | 0.934 | 0.957 | 0.952 | 1.13 | 1.15 | 1.08 | 0.936 | 0.475 | 0.711 | 0.664 | 0.576 | 0.383 | 0.317 | 0.491 | 0.332 | 0.365
8 | NCI-H838 | 0.44 | 0.471 | 0.489 | 0.539 | 0.725 | 0.689 | 0.582 | 0.315 | 0.827 | 0.941 | 0.963 | 0.958 | 1.08 | 0.977 | 1.05 | 0.888 | 0.779
9 | NCI-H1355 | 0.332 | 0.331 | 0.36 | 0.328 | 0.64 | 0.627 | 0.619 | 0.533 | 0.689 | 0.853 | 0.674 | 0.575 | 0.88 | 0.747 | 0.764 | 0.598 | 0.707
10 | NCI-H1395 |  | 0.731 | 0.652 | 0.663 |  | 0.833 | 0.468 | 0.674 |  | 0.362 | 0.395 | 0.37 | 1.02 | 0.907 | 0.986 | 0.957 | 0.763
11 | NCI-H1437 | 0.448 | 0.545 | 0.543 | 0.467 | 0.853 | 0.712 | 0.611 | 0.426 | 1.12 | 0.977 | 1.16 | 1.01 | 1.05 | 1.07 | 1.11 | 1.07 | 0.893
12 | NCI-H1651 | 0.466 | 0.644 | 0.56 | 0.521 | 0.459 | 0.594 | 0.411 | 0.395 | 0.429 | 0.485 | 0.367 | 0.302 | 0.977 | 0.964 | 0.948 | 0.734 | 0.733
13 | NCI-H1666 | 0.71 | 0.764 | 0.758 | 0.717 | 0.933 | 1.01 | 1.01 | 0.847 | 0.705 | 0.886 | 0.714 | 0.768 | 0.935 | 0.759 | 0.749 | 0.844 | 0.927
14 | NCI-H1734 | 0.486 | 0.497 | 0.519 | 0.47 | 0.725 | 0.891 | 0.702 | 0.67 | 0.45 | 0.68 | 0.372 | 0.235 | 0.809 | 0.747 | 0.784 | 0.698 | 0.765
15 | NCI-H1755 | 0.66 | 0.649 | 0.696 | 0.665 | 0.665 | 0.715 | 0.673 | 0.484 | 0.38 | 0.444 | 0.439 | 0.422 | 0.948 | 0.949 | 0.891 | 0.606 | 0.444
16 | NCI-H1793 | 0.423 | 0.514 | 0.56 | 0.499 | 0.519 | 0.72 | 0.566 | 0.726 | 0.387 | 0.414 | 0.314 | 0.206 | 0.405 | 0.328 | 0.286 | 0.283 | 0.176
17 | NCI-H1915 | 0.276 | 0.264 | 0.245 | 0.238 | 0.468 | 0.51 | 0.467 | 0.326 | 0.652 | 0.653 | 0.685 | 0.573 | 0.788 | 0.765 | 0.779 | 0.79 | 0.775
18 | NCI-H1944 | 0.409 | 0.37 | 0.382 | 0.385 | 0.493 | 0.539 | 0.488 | 0.422 | 0.463 | 0.483 | 0.354 | 0.21 | 0.981 | 1.02 | 1 | 0.943 | 0.841
19 | NCI-H1975 | 0.371 | 0.394 | 0.382 | 0.379 | 0.655 | 0.671 | 0.566 | 0.609 | 0.66 | 0.768 | 0.592 | 0.705 | 1.03 | 1.13 | 0.989 | 0.903 | 0.805
20 | NCI-H1993 | 0.571 | 0.588 | 0.599 | 0.709 | 0.551 | 0.825 | 0.693 |  | 0.53 | 0.884 | 0.55 | 0.459 | 0.761 | 0.848 | 0.884 | 0.831 | 0.82
21 | NCI-H2085 |  | 0.51 | 0.557 | 0.512 |  | 0.751 | 0.731 | 0.631 |  | 0.912 | 0.934 | 0.784 | 1.11 | 0.978 | 0.951 | 0.622 | 0.626
22 | NCI-H2087 | 0.23 | 0.318 | 0.24 | 0.145 | 0.398 | 0.42 | 0.728 | 0.193 | 1.24 | 1.27 | 1.07 | 0.973 | 0.989 | 0.898 | 1.06 | 0.945 | 0.952
23 | NCI-H2126 | 0.563 | 0.555 | 0.561 | 0.481 | 0.456 | 0.796 | 0.684 | 0.485 | 0.865 | 1.04 | 0.971 | 0.887 | 0.831 | 0.835 | 0.837 | 0.752 | 0.817
24 | NCI-H2170 | 0.471 | 0.454 | 0.452 | 0.482 | 0.774 | 0.744 | 0.737 | 0.501 | 0.815 | 0.858 | 1.01 | 0.928 | 0.572 | 0.64 | 0.594 | 0.541 | 0.51
25 | NCI-H2347 | 0.626 | 0.664 | 0.585 | 0.61 | 0.449 | 0.567 | 0.55 | 0.469 | 0.57 | 0.718 | 0.665 | 0.478 | 0.796 | 0.681 | 0.598 | 0.432 | 0.49
26 | NCI-H2405 | 0.671 | 0.749 | 0.804 | 0.797 | 0.854 | 1.02 | 0.379 | 0.767 | 0.698 | 0.781 | 0.738 | 0.76 | 0.701 | 0.815 | 0.804 | 0.668 | 0.636
27 | NCI-H3122 | 0.388 | 0.404 | 0.443 | 0.529 | 0.966 | 0.848 | 0.853 | 0.708 | 0.838 | 1.03 | 1.01 | 1.12 | 1.09 | 1.03 | 1.02 | 1.09 | 1.01
28 | PC-3 [JPC-3] | 0.766 | 0.736 | 0.757 | 0.758 | 0.505 | 0.854 | 0.448 | 0.669 | 0.54 | 0.695 | 0.679 | 0.665 | 0.722 | 0.768 | 0.847 | 0.806 | 0.863
29 | PC-14 | 0.22 | 0.19 | 0.193 | 0.22 | 0.576 | 0.691 | 0.593 | 0.396 | 0.26 | 0.321 | 0.306 | 0.26 | 0.951 | 1 | 0.961 | 1.01 | 0.926
30 | RERF-LC-KJ | 0.77 | 0.609 | 0.672 | 0.618 | 0.583 | 0.657 | 0.639 | 0.434 | 0.864 | 0.916 | 0.832 | 0.894 |  | 0.78 | 0.913 | 0.8 | 1.14
